Measurements: patent US5272147A, “Pyrazolopyrimidinone antianginal agents” (Pfizer Inc., priority 1991, dated 1993)

Experiments:
Assay type in all cases: biochemical
[1] = target: T1, Ca/CAM-independent cGMP PDE (Oryctolagus cuniculus, UniProt G1SX67); test: Phosphodiesterase activity: inhibition of calcium/calmodulin (Ca/CAM)-independent cGMP PDE from rabbit platelets; details: in vitro; Ca/CAM-independent cGMP PDE from rabbit platelets
T1 construct: The PDE enzymes are isolated from rabbit platelets and rat kidney; from tissue; host or cells: rabbit platelets
Method: (§1) Compound affinities for cGMP and cAMP PDEs are assessed by determination of their IC50 value (the concentration of inhibitor required for 50% inhibition of enzyme activity). The PDE enzymes are isolated from rabbit platelets and rat kidney, essentially by the method of W. J. Thompson et al. (Biochem., 1971, 10, 311). The calcium/calmodulin (Ca/CAM)-independentcGMP PDE and the cGMP-inhibited cAMP PDE enzymes are obtained from rabbit platelets whilst, of the four major PDE enzymes of the rat kidney, the Ca/CAM-dependent cGMP PDE (fraction I) is isolated. Assays are performed using a modification of the "batch" method of W. J. Thompson and M. M. Appleman (Biochem., 1979, 18, 5228).

[2] = tested on: Ca/CAM-independent cGMP PDE; test: as above; details: between Ca/CAM-independent cGMP PDE and cGMP-inhibited cAMP PDE (IC50 cAMP / IC50 cGMP)
Method: as §1

cGMP-inhibited cAMP PDE = target: T2, cGMP-inhibited cAMP PDE (Oryctolagus cuniculus, UniProt G1ST54); test: Phosphodiesterase activity: inhibition of cGMP-inhibited cAMP PDE from rabbit platelets; details: in vitro
T2 construct: The PDE enzymes are isolated from rabbit platelets and rat kidney; from tissue; host or cells: rabbit platelets
T2 sequence (G1ST54 1-1128): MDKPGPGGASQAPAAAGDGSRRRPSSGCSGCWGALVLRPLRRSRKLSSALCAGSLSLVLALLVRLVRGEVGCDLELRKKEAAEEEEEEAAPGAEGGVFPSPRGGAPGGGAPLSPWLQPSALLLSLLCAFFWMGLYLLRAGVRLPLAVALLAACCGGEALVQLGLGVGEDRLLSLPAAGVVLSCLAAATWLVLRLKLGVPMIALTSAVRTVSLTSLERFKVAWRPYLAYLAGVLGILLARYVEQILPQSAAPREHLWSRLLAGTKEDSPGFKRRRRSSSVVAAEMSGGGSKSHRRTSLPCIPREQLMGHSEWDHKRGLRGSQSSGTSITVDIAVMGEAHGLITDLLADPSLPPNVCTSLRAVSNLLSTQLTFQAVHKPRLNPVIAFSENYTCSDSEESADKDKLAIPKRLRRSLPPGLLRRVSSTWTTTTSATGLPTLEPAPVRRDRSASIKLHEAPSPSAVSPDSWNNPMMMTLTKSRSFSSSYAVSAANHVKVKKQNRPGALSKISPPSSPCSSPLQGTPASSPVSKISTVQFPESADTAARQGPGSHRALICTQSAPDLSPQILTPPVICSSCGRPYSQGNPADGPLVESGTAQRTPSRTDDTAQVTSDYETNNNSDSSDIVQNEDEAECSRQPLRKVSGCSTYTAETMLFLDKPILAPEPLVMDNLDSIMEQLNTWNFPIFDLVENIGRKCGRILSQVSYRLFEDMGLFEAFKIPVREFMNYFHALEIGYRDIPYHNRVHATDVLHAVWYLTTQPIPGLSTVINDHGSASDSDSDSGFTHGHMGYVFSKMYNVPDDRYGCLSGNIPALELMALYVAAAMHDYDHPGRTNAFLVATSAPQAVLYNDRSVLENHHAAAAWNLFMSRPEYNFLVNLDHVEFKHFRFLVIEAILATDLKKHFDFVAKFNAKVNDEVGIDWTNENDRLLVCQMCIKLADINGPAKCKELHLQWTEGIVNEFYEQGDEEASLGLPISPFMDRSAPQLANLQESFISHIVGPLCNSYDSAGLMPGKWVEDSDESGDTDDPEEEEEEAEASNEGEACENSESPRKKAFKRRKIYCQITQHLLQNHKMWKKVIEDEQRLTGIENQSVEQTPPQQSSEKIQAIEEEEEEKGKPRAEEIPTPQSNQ
Method: as §1

| IC50 [1] [µM] | IC50 (cGMP-inhibited cAMP PDE) [µM] | Compound | SELECTIVITY RATIO [2] |
| --- | --- | --- | --- |
| 0.0034 | 75 | CCCOc1ccc(C(=O)CN2CCN(C)CC2)cc1-c1nc2c(CCC)nn(C)c2c(=O)[nH]1 [Example 15, 1-Methyl-5-[5-(4-methyl-1-piperazinylacetyl)-2n-propoxyphenyl]-3-n-propyl-1,6-dihydro-7H-pyrazolo [4,3-d]pyrimidin-7-one] | 22,058 |
| 0.0014 | 58 | CCCc1nn(C)c2c(=O)[nH]c(-c3cc(C(=O)N4CCN(C)CC4)ccc3OCC)nc12 [Example 30, 5-[2-Ethoxy-5-(4-methylpiperazinylcarbonyl)phenyl]-1-methyl-3-n-propyl-1,6-dihydro-7H-pyrazolo[4,3-d]-pyrimidin-7-one] | – |
| 0.0049 | 57 | CCCc1nn(C)c2c(=O)[nH]c(-c3cc(C(O)CN4CCOCC4)ccc3OCC)nc12 (centres unmarked) [Example 11] | 11,632 |
| 0.0055 | 84 | CCCc1nn(C)c2c(=O)[nH]c(-c3cc(C(=O)O)ccc3OCC)nc12 [Example 29, 4-Ethoxy-3-(-1-methyl-3-n-propyl-1,6-dihydro-7H-pyrazolo[4,3-d]-pyrimidin-5-yl)benzoic acid] | 15,272 |
| 0.0022 | 86 | CCCc1nn(C)c2c(=O)[nH]c(-c3cc(C(=O)CN4CCN(C(C)=O)CC4)ccc3OCC)nc12 [Example 3, 5-[5-(4-acetyl-1-piperazinyl)acetyl-2-ethoxyphenyl]-1-methyl-3-n-propyl-1,6-dihydro-7H-pyrazolo[4,3-d]pyrimidin-7-one] | 39,090 |
| 0.0037 | 59 | CCCOc1ccc(/C=C/C(=O)O)cc1-c1nc2c(CCC)nn(C)c2c(=O)[nH]1 [Example 20, (E)-3-(1-Methyl-7-oxo-3-n-propyl-1,6-dihydro-7H-pyrazolo[4,3-d]-pyrimidin-5-yl)-4-n-propoxycinnamic acid] | 15,945 |
| 0.0037 | 53 | CCCOc1ccc(C(O)CN2CCOCC2)cc1-c1nc2c(CCC)nn(C)c2c(=O)[nH]1 (centres unmarked) [Example 16, 5-[5-(1-Hyroxy-2-morpholinoethyl)-2-n-propoxyphenyl]-1-methyl-3-n-propyl-1,6-dihydro-7H-pyrazolo[4,3-d]pyrimidin-7-one] | 14,324 |
| 0.0034 | 56 | CCCc1nn(C)c2c(=O)[nH]c(-c3cc(-n4ccnc4)ccc3OCC)nc12 [Example 31, 5-[2-Ethoxy-5-(1-imidazolyl)phenyl]-1-methyl-3-n-propyl-1,6-dihydro-7H-pyrazolo[4,3-d]-pyrimidin-7-one] | 16,470 |
| 0.0053 | 54 | CCCOc1ccc(COCCO)cc1-c1nc2c(CCC)nn(C)c2c(=O)[nH]1 [Example 39, 5-[5-(2-Hydroxyethoxymethyl)-2-n-propoxyphenyl]-1-methyl-3-n-propyl-1,6-dihydro-7H-pyrazolo[4,3-d]-pyrimidin-7-one] | 10,188 |
| 0.0014 | 38 | CCCc1nn(C)c2c(=O)[nH]c(-c3cc(-c4nccn4C)ccc3OCC)nc12 [Example 32, 5-[2-ethoxy-5-(1-methyl-2-imidazolyl)phenyl]-1methyl-3-n-propyl-1,6-dihydro-7H-pyrazolo[4,3-d]pyrimidin-7-one] | 27,142 |
| 0.001 | 57 | CCCOc1ccc(C(=O)CN2CCOCC2)cc1-c1nc2c(CCC)nn(C)c2c(=O)[nH]1 [Example 14, 1-Methyl-5-(5-morpholinoacetyl-2-n-propoxyphenyl)-3-n-propyl-1,6-dihydro-7H-pyrazolo[4,3-d]pyrimidin-7-one] | 57,000 |
| 0.0034 | 84 | CCCc1nn(C)c2c(=O)[nH]c(-c3cc(/C=C/C(=O)N(C)C)ccc3OCC)nc12 [Example 25, (E)-4-Ethoxy-3(1-methyl-3-n-propyl-1,6-dihydro-7H-pyrazolo[4,3-d]-pyrimidin-5-yl)cinnamic acid dimethylamide] | 24,705 |
| 0.0018 | 63 | CCCc1nn(C)c2c(=O)[nH]c(-c3cc(C(=O)CN4CCOCC4)ccc3OCC)nc12 [Example 4, 5-(2-ethoxy-5-morpholinoacetylphenyl)-1-methyl-3-n-propyl-1,6dihydro-7H-pyrazolo[4,3-d]pyrimidin-7-one] | 35,000 |
